Literature values, collected in patent publication US20140056862A1, “NUTRITIONAL COMPOSITIONS HAVING ALPHA-HICA AND ALPHA-KETOGLUTARATE” (Nestec S.A., priority 2011, published 2014).

Tested on: intestinal mammalian target of rapamycin (mTOR); intestinal villi and crypts
Settings: piglet stressed with LPS

O=C(O)CCC(=O)C(=O)O [AKG, α-ketoglutarate]
crypt depth: reduced
villous height: increased
phosphorylation of intestinal mammalian target of rapamycin (mTOR) (leading to increased protein synthesis and anti-inflammatory responses): increased
